These results are taken from publication PMC12990037, “Discovery of Two Structurally Distinct Classes of Inhibitors Targeting the Nuclease MUS81 and Enhancing Efficacy of Chemotherapy in Cancer Cells” (Journal of Medicinal Chemistry, 2026).

What is called IC50 is the point on the concentration scale where inhibition reaches its midpoint.

The test system of series [1] is major cytochrome P450 isoforms. The experiment in a line: Cytochrome P450 inhibition. It is filed as in vitro ADME.
The subject of the next series is U2OS, HEK293, and CAL51. As to the kind of experiment: Cell proliferation assay (CyQUANT), combination with cisplatin. It is filed as cell-based. To be noted: cotreatment with cisplatin, 5 days. As for the experimental part: 7 MUS81 inhibitors synergize with cisplatin to reduce cancer cell viability. (A,B) U2OS cells were treated with DMSO, MU262, or MU876 at the indicated concentrations in combination with a range of cisplatin (0–5 μM) for 96–120 h. Cell viability was assessed by the Cy-Quant assay. The survival was normalized to the DMSO-treated control. Graphs were generated in Graphpad Prism using the nonlinear regression fitting model. n ≥ 3, error bars represent s.d. (C) CAL51 WT cells were treated with DMSO, MU262, or MU876 at the indicated concentrations at each passage over 2 weeks. Cisplatin (12 μM) was added for the last 24 h before harvest. DNA damage was assessed by quantifying γH2AX foci using fluorescence microscopy and CellProfiller software. Data were visualized plotted in R software. Red markers represent the median of γH2AX foci number per nucleus; blue markers represent the percentage of cells with ≥20 γH2AX foci per nucleus. n = 3, error bars represent s.d.; ****p <0.0001 (unpaired, two-tailed t-test). TEXT PRINTED IN THE PICTURE: (C) D: γH2AX foci: 2.4 (DMSO); γH2AX foci: 59.6 (Cisplatin) | (C) MU262: γH2AX foci: 2.3 (1 μM; DMSO); γH2AX foci: 3 (2 μM; DMSO); γH2AX foci: 55.4 (1 μM; Cisplatin); γH2AX foci: 43.2 (2 μM; Cisplatin) | (C) MU876: γH2AX foci: 2.8 (0.25 μM; DMSO); γH2AX foci: 0.9 (0.5 μM; DMSO); γH2AX foci: 48.2 (0.25 μM; Cisplatin); γH2AX foci: 42.6 (0.5 μM; Cisplatin) DOUBTS OF THE COPYIST ABOUT THIS PICTURE: Panel C: the numbers in the blue markers have no measure or unit of their own printed in the picture; the axis title 'γH2AX foci' is given as the measure, but the numbers may stand for another quantity. / Panel C: 'D' is a control column with no concentration; it may not count as a substance. / Panel C: small white print on blue markers; 59.6, 55.4, 48.2, 43.2, 42.6, 2.8 and 0.9 are best readings (3, 5, 6, 8 and 9 are hard to tell apart).
CAL51 WT, CAL51 MUS81^–/–, U2OS, and HEK293 cells were seeded in a 96-well plate and treated with the respective concentration of selected inhibitors. […]

The next series concerns U2OS DR-GFP cells. As to the kind of experiment: I-SceI-based HR repair reporter assay. It is filed as cell-based. To be noted: Homo sapiens, 72 h. The method, then: 3 MUS81 inhibitors suppress HR and BIR. (A) I-SceI-based BIR repair efficiency was measured in U2OS BIR-GFP cells treated with DMSO, two different siRNAs targeting MUS81, or the indicated concentrations of MU262 and MU876, and their control analogues for 72 h. The percentage of repair was normalized to the DMSO-treated control (D). n = 3. Error bars represent standard deviation (s.d.); ****p <0.0001 (unpaired, two-tailed t-test). […] (C,D) I-SceI-based HR (C) and NHEJ (D) repair efficiency was measured using U2OS DR-GFP and EJ5-GFP cells, respectively, following treatment with DMSO, MU262,MU876, or their control analogues for 72 h. The percentage of repair was normalized to the DMSO-treated control. n = 3. Error bars represent s.d.; *p <0.05, **p <0.01, ****p <0.0001 (unpaired, two-tailed t-test).
Reporter DR-GFP and […] U2OS cells along with BIR-GFP cells were transfected with 2.5 μg of I-SceI-expressing pCAGGS vector and subsequently treated with MUS81 inhibitors at the indicated concentrations. After transfection (72 h), cells were trypsinized and resuspended in 3% BSA in PBS. GFP fluorescence detection was carried out using a BD FACSVerse flow cytometer, and the data were analyzed with FlowJo software (BD Life Sciences). Data presented in the graph were normalized to the DMSO-treated sample.
On the technique in general: A reporter such as luciferase makes a cellular process visible.

Another series has as its system U2OS cells. As to the kind of experiment: γH2AX foci immunofluorescence, 72 h treatment. The format is cell-based. The method, then: 6 MUS81 inhibition induces persistent DNA damage leading to reduced cell survival. (A) U2OS cells were treated with DMSO, cisplatin as a positive control, control or MUS81-targeting siRNA, MU262, MU876, and their negative control counterparts at the indicated concentrations for 72 h. Representative images show staining of a DNA damage marker γH2AX in green with counterstaining of DAPI in blue. The concentration of all inhibitors shown in (A) is 2.5 μM. (B) DNA damage was assessed by quantifying γH2AX foci per nucleus from (A) using CellProfiller software. The graph represents percentage (%) of cells with ≥20 γH2AX foci per nucleus across different concentrations of inhibitors. n = 3; error bars represent s.d. (C) Indicated number of U2OS cells was transfected with a nontargeting siRNA (siCon) or MUS81-targeting siRNA (siMUS81) seeded for a CFA. […] (D) Quantification of (C), error bars represent s.d.; ****p <0.0001 (unpaired, two-tailed t-test). […] (F) Quantification of (E) using a nonlinear regression fitting model. n = 3. […] (H) Quantification of (G) using a nonlinear regression fitting model. n = 3.
U2OS, CAL51 WT, and CAL51 MUS81^–/– cells (10,000) were seeded in a 96-well plate 24 h before the treatment. […] The γH2AX foci were detected and quantified using CellProfiler (Broad Institute of MIT and Harvard). The analyzed data were plotted in RStudio software using R programming language.

For the compound `CCc1nn2c(O)c(-c3nc4ccccc4[nH]3)nnc2c1-c1ccc(F)cc1` [Compound 18, 3-(1H-Benzo[d]imidazole-2-yl)-7-ethyl-8-(4-fluorophenyl)pyrazolo[5,1-c][1,2,4]triazin-4-ol], in series [1], the “inhibition of major cytochrome P450 isoforms” value was “do not significantly inhibit major cytochrome P450 isoforms”. The “enhancement of cisplatin-induced decrease of viability” value in the series on U2OS, HEK293, and CAL51 is on record as “further enhanced by cotreatment with both MUS81 inhibitors in a dose-dependent manner”. In addition, the concentration for half-maximal inhibition (IC50) in the series with U2OS DR-GFP cells lay within 500 to 1000 nM. The “γH2AX (DNA damage) foci” value in the series on U2OS cells was “significantly increased the number of DNA damage foci in a concentration-dependent manner”.

For `Cc1cc(=O)[nH]c(-n2nc(-c3ccccc3)cc2NC(=O)c2cc(-c3ccccc3)on2)n1` [Compound 32, N-(1-(4-Methyl-6-oxo-1,6-dihydropyrimidin-2-yl)-3-phenyl-1H-pyrazol-5-yl)-5-phenylisoxazole-3-carboxamide], the “inhibition of major cytochrome P450 isoforms” value in series [1] was “do not significantly inhibit major cytochrome P450 isoforms”. For the same compound, the “enhancement of cisplatin-induced decrease of viability” value in the series on U2OS, HEK293, and CAL51 is “further enhanced by cotreatment with both MUS81 inhibitors in a dose-dependent manner”. The same compound gave a 50% inhibitory concentration (IC50) with U2OS DR-GFP cells of 500 to 1000 nM. For the same compound, in the series with U2OS cells, the “γH2AX (DNA damage) foci” value is “significantly increased the number of DNA damage foci in a concentration-dependent manner”.
